Values of other authors in paper PMC9762682, “Tocotrienols: Exciting Biological and Pharmacological Properties of Tocotrienols and Naturally Occurring Compounds, Part II” (Annals of clinical case reports, 2022).

What was measured:
[1] = test system: plasma total mRNAs gene expression; set-up: method as in PMID 30031388
[2] = test system: plasma miRNAs; set-up: method as in earlier work
[3] = hepatitis C patients, plasma total mRNAs, pre-dose vs post-dose
[4] = 250 mg/d + AHA Step-1 diet, baseline = 100

For `CC(C)=CCC/C(C)=C/CC/C(C)=C/CC[C@]1(C)CCc2cc(O)cc(C)c2O1` [δ-Tocotrienol], the “side effects in hepatitis C patients” value ([1]; chronic hepatitis C patients) is given as “without any side-effect”, the “Expr. Fold Change: AKR1D1” value [1, 3] is given as 14.056 and the “Expr. Fold Change: APOBEC3A” value [1, 3] is given as −8.163. For the same molecule, the “Expr. Fold Change: ATF4” value [1, 3] was −9.515, the “Expr. Fold Change: ATG3” value [1, 3] was −8.376 and the “Expr. Fold Change: ATP1A1” value [1, 3] was −8.014. The “Expr. Fold Change: CERS3” value [1, 3] was 19.082, the “Expr. Fold Change: COX14” value [1, 3] was −9.447 and the “Expr. Fold Change: CREB1” value [1, 3] was −8.452. The “Expr. Fold Change: CXCR2” value [1, 3] was −8.208, the “Expr. Fold Change: CYB5R4” value [1, 3] was −8.367 and the “Expr. Fold Change: CYP2R1” value [1, 3] was −8.682. The “Expr. Fold Change: FRS2” value [1, 3] was −9.962, the “Expr. Fold Change: GPR65” value [1, 3] was −9.054 and the “Expr. Fold Change: GPS2” value [1, 3] was −9.56. The “Expr. Fold Change: GTPBP8” value [1, 3] was −10.19, the “Expr. Fold Change: GYS1” value [1, 3] was −9.027 and the “Expr. Fold Change: HBG1” value [1, 3] was 17.945. The “Expr. Fold Change: HBG2” value [1, 3] was 11.413, the “Expr. Fold Change: HHIPL2” value [1, 3] was 28.710 and the “Expr. Fold Change: HIST1H2AD” value [1, 3] was 1804955.068. For the same molecule, the “Expr. Fold Change: HSP90AB1” value [1, 3] was −8.049, the “Expr. Fold Change: HSPA14” value [1, 3] was −10.978 and the “Expr. Fold Change: ID2” value [1, 3] was −14.133. The “Expr. Fold Change: IFNGR2” value [1, 3] was −13.844, the “Expr. Fold Change: IGF2R” value [1, 3] was −8.68 and the “Expr. Fold Change: IGSF6” value [1, 3] was −8.712. The “Expr. Fold Change: IL2RG” value [1, 3] was −16.787, the “Expr. Fold Change: IL16” value [1, 3] was −8.239 and the “Expr. Fold Change: IL27RA” value [1, 3] was −12.004. For the same molecule, the “Expr. Fold Change: ILF2” value [1, 3] was −9.105, the “Expr. Fold Change: IRF2” value [1, 3] was −22.655 and the “Expr. Fold Change: KLRC4-KLRK1/KLRK1” value [1, 3] was −1565687.642. For the same molecule, the “Expr. Fold Change: MKX” value [1, 3] was 9.573, the “Expr. Fold Change: MT-TQ” value [1, 3] was 14.252 and the “Expr. Fold Change: NDUFA11” value [1, 3] was −8.686. The “Expr. Fold Change: NDUFB1” value [1, 3] was −8.566, the “Expr. Fold Change: NDUFB9” value [1, 3] was −8.354 and the “Expr. Fold Change: NFIL3” value [1, 3] was −9.568. The “Expr. Fold Change: OSBPL11” value [1, 3] was −9.201, the “Expr. Fold Change: P4HA3” value [1, 3] was 8.686 and the “Expr. Fold Change: PDE3B” value [1, 3] was −8.568. The “Expr. Fold Change: PECAM1” value [1, 3] was −9.552, the “Expr. Fold Change: PIAS1” value [1, 3] was −9.326 and the “Expr. Fold Change: PIBF1” value [1, 3] was −9.876. The “Expr. Fold Change: PRPF18” value [1, 3] was −8.777, the “Expr. Fold Change: PSMA5” value [1, 3] was −9.31 and the “Expr. Fold Change: PSMB4” value [1, 3] was −10.119. The “Expr. Fold Change: PSMB8” value [1, 3] was −9.709, the “Expr. Fold Change: PSMC3” value [1, 3] was −8.346 and the “Expr. Fold Change: PTGS2” value [1, 3] was −25.841. For the same molecule, the “Expr. Fold Change: RAP2C” value [1, 3] was −9.792, the “Expr. Fold Change: RPP38” value [1, 3] was 24.946 and the “Expr. Fold Change: RPS26” value [1, 3] was −9.456. The “Expr. Fold Change: SCP2” value [1, 3] was −13.672, the “Expr. Fold Change: SERP1” value [1, 3] was −8.872 and the “Expr. Fold Change: SFPQ” value [1, 3] was −9.469. The “Expr. Fold Change: TLR8” value [1, 3] was −11.975, the “Expr. Fold Change: TNFAIP8” value [1, 3] was −10.974 and the “Expr. Fold Change: TNFRSF1B” value [1, 3] was −8.746. The “Expr. Fold Change: TRAF7” value [1, 3] was −9.341, the “Expr. Fold Change: TSPAN15” value [1, 3] was 11.523 and the “Expr. Fold Change: TUSC2” value [1, 3] was −15.922. For the same molecule, the “Expr. Fold Change: UBA52” value [1, 3] was −10.176, the “Expr. Fold Change: UBE2J1” value [1, 3] was −8.874 and the “Expr. Fold Change: UBE4A” value [1, 3] was −10.189. For the same molecule, the “Expr. Fold Change: UBP1” value [1, 3] was −9.718, the “Expr. Fold Change: USP15” value [1, 3] was −10.16 and the “Expr. Fold Change: USP19” value [1, 3] was −10.713. For the same molecule, the “Expr. Fold Change: USP25” value [1, 3] was −9.911, the “Expr. Fold Change: VEGFA” value [1, 3] was −8.933 and the “Expr. Fold Change: mir-140” value [1, 3] was −5668.259. The “Expr. Fold Change: mir-877” value [1, 3] was −4497.07, the “Expr. Fold Change: mir-1250” value [1, 3] was −4755.79 and the “expression of pro-inflammatory cytokines (TNF-α, VCAM1, proteasome subunits)” value ([1]; plasma total mRNAs after δ-tocotrienol feeding to hepatitis C patients) was “significant inhibition”. The “expression of ICAM1 and IFN-γ” value ([1]; plasma total mRNAs after δ-tocotrienol feeding to hepatitis C patients, post-treatment) was “induction”, the “plasma miRNA-7a” value [2, 4] was 168.0 ± 1.41 and the “plasma miRNA-15a” value [2, 4] was 179.0 ± 1.41. The “plasma miRNA-20a” value [2, 4] was 168.00 ± 2.24, the “plasma miRNA-21” value [2, 4] was 143.0 ± 2.83 and the “plasma miRNA-29a” value [2, 4] was 142.0 ± 2.83. For the same molecule, the “plasma miRNA-92a” value [2, 4] was 153.5 ± 2.12, the “plasma miRNA-200” value [2, 4] was 146.0 ± 1.41 and the “plasma miRNA-206” value [2, 4] was 150 ± 2.83. For the same molecule, the “Circulating miRNA-7a, miRNA-15a, miRNA-20a, miRNA-21, miRNA-29a, miRNA-92a, miRNA-200, miRNA-206” value ([2]; compared to baseline in hypercholesterolemic subjects) was “up-regulated”.
